Source: patent publication US20230085307A1, “PYRIDAZINONE COMPOUND AND HERBICIDE” (NISSAN CHEMICAL CORPORATION, priority 2019, published 2023)

Columns and labels:
late watergrass = test: Test Example 1: herbicidal activity, application before weed generation under submerged conditions (Table 16, symbol A); assay type: in vivo, late watergrass (Echinochloa oryzicola); conditions: amount of applied herbicide 320 g/ha
Procedure, shortened: (§1)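 Emulsion formulation, water-diluted to set dose, was put onto the flooded surface (4 cm depth, alluvial soil) the same day weeds were sown and 2.5-leaf rice transplanted. After 3 weeks at 25-30 °C under glass, each species was rated 0 (≤5% kill) to 5 (≥90% kill).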

Italian ryegrass [1] = test: Test Example 4: herbicidal effect by soil treatment (Table 19, symbol K); assay type: in vivo, Italian ryegrass (Lolium multiflorum); conditions: amount of applied herbicide 320 g/ha
Procedure, shortened: (§2)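 Step 1: sow seeds in sterilized diluvial soil, cover ~1.5 cm. Step 2: spray diluted emulsion onto soil surface at predetermined rate. Step 3: greenhouse, 25–30° C, three weeks. Step 4: grade effect on each plant by earlier criteria.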

windgrass [2] = test: Test Example 4: herbicidal effect by soil treatment (Table 19, symbol L); assay type: in vivo, windgrass (Apera spica-venti); conditions: amount of applied herbicide 320 g/ha
Procedure, shortened: as §2

blackgrass [3] = test: Test Example 5: herbicidal effect by foliage application, plastic box (Table 20, symbol J); assay type: in vivo, blackgrass (Alopecurus myosuroides); conditions: amount of applied herbicide 320 g/ha; foliage application after 14-day growth; evaluated three weeks after application
Procedure, shortened: (§3)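 Foliar spray test: emulsion formulation diluted in water to a set application rate, sprayed onto 14-day-old plants raised in diluvial soil at 25° C to 30° C under glass. Both herbicidal effect and crop effect rated visually three weeks later.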

windgrass [4] = test: Test Example 5: herbicidal effect by foliage application, plastic box (Table 20, symbol L); assay type: in vivo, windgrass (Apera spica-venti); conditions: amount of applied herbicide 320 g/ha; foliage application after 14-day growth; evaluated three weeks after application
Procedure, shortened: as §3

redroot pigweed [5] = test: Test Example 4: herbicidal effect by soil treatment (Table 19, symbol N); assay type: in vivo, redroot pigweed (Amaranthus retroflexus); conditions: amount of applied herbicide 320 g/ha
Procedure, shortened: as §2

barnyard grass [6] = test: Test Example 5: herbicidal effect by foliage application, plastic box (Table 20, symbol H); assay type: in vivo, barnyard grass (Echinochloa crus-galli); conditions: amount of applied herbicide 320 g/ha; foliage application after 14-day growth; evaluated three weeks after application
Procedure, shortened: as §3

chickweed [7] = test: Test Example 4: herbicidal effect by soil treatment (Table 19, symbol P); assay type: in vivo, common chickweed (Stellaria media); conditions: amount of applied herbicide 320 g/ha
Procedure, shortened: as §2

southern crabgrass [8] = test: Test Example 5: herbicidal effect by foliage application, plastic box (Table 20, symbol F); assay type: in vivo, southern crabgrass (Digitaria ciliaris); conditions: amount of applied herbicide 320 g/ha; foliage application after 14-day growth; evaluated three weeks after application
Procedure, shortened: as §3

rice flat sedge = test: Test Example 3: herbicidal effect by foliage application, Wagner pot (Table 18, symbol E); assay type: in vivo, rice flat sedge (Cyperus iria); conditions: 320 g/ha
Procedure, shortened: (§4)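 Plants were sown in alluvial soil held under 0.1–0.5 cm standing water and grown 14 days in a greenhouse at 25–30 °C. An emulsifiable formulation, water-diluted to the set dose, was then sprayed onto the foliage, and effects were scored three weeks later using previously defined criteria.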

oval-leafed pondweed = test: Test Example 1: herbicidal activity, application before weed generation under submerged conditions (Table 16, symbol C); assay type: in vivo, oval-leafed pondweed (Monochoria vaginalis); conditions: amount of applied herbicide 320 g/ha
Procedure, shortened: as §1

blackgrass [9] = test: Test Example 4: herbicidal effect by soil treatment (Table 19, symbol J); assay type: in vivo, blackgrass (Alopecurus myosuroides); conditions: amount of applied herbicide 320 g/ha
Procedure, shortened: as §2

persian speedwell [10] = test: Test Example 4: herbicidal effect by soil treatment (Table 19, symbol R); assay type: in vivo, Persian speedwell (Veronica persica); conditions: amount of applied herbicide 320 g/ha
Procedure, shortened: as §2

velvetleaf [11] = test: Test Example 5: herbicidal effect by foliage application, plastic box (Table 20, symbol M); assay type: in vivo, velvetleaf (Abutilon theophrasti); conditions: amount of applied herbicide 320 g/ha; foliage application after 14-day growth; evaluated three weeks after application
Procedure, shortened: as §3

wild oat [12] = test: Test Example 5: herbicidal effect by foliage application, plastic box (Table 20, symbol I); assay type: in vivo, wild oat (Avena fatua); conditions: amount of applied herbicide 320 g/ha; foliage application after 14-day growth; evaluated three weeks after application
Procedure, shortened: as §3

chickweed [13] = test: Test Example 5: herbicidal effect by foliage application, plastic box (Table 20, symbol P); assay type: in vivo, common chickweed (Stellaria media); conditions: amount of applied herbicide 320 g/ha; foliage application after 14-day growth; evaluated three weeks after application
Procedure, shortened: as §3

barnyard grass [14] = test: Test Example 3: herbicidal effect by foliage application, Wagner pot (Table 18, symbol H); assay type: in vivo, barnyard grass (Echinochloa crus-galli); conditions: 320 g/ha
Procedure, shortened: as §4

green foxtail [15] = test: Test Example 5: herbicidal effect by foliage application, plastic box (Table 20, symbol G); assay type: in vivo, green foxtail (Setaria viridis); conditions: amount of applied herbicide 320 g/ha; foliage application after 14-day growth; evaluated three weeks after application
Procedure, shortened: as §3

southern crabgrass [16] = test: Test Example 4: herbicidal effect by soil treatment (Table 19, symbol F); assay type: in vivo, southern crabgrass (Digitaria ciliaris); conditions: amount of applied herbicide 320 g/ha
Procedure, shortened: as §2

velvetleaf [17] = test: Test Example 4: herbicidal effect by soil treatment (Table 19, symbol M); assay type: in vivo, velvetleaf (Abutilon theophrasti); conditions: amount of applied herbicide 320 g/ha
Procedure, shortened: as §2

Japanese bulrush = test: Test Example 1: herbicidal activity, application before weed generation under submerged conditions (Table 16, symbol B); assay type: in vivo, Japanese bulrush (Schoenoplectus juncoides); conditions: amount of applied herbicide 320 g/ha
Procedure, shortened: as §1

lambsquarters [18] = test: Test Example 4: herbicidal effect by soil treatment (Table 19, symbol O); assay type: in vivo, lambsquarters (Chenopodium album); conditions: amount of applied herbicide 320 g/ha
Procedure, shortened: as §2

redroot pigweed [19] = test: Test Example 5: herbicidal effect by foliage application, plastic box (Table 20, symbol N); assay type: in vivo, redroot pigweed (Amaranthus retroflexus); conditions: amount of applied herbicide 320 g/ha; foliage application after 14-day growth; evaluated three weeks after application
Procedure, shortened: as §3

barnyard grass [20] = test: Test Example 4: herbicidal effect by soil treatment (Table 19, symbol H); assay type: in vivo, barnyard grass (Echinochloa crus-galli); conditions: amount of applied herbicide 320 g/ha
Procedure, shortened: as §2

persian speedwell [21] = test: Test Example 5: herbicidal effect by foliage application, plastic box (Table 20, symbol R); assay type: in vivo, Persian speedwell (Veronica persica); conditions: amount of applied herbicide 320 g/ha; foliage application after 14-day growth; evaluated three weeks after application
Procedure, shortened: as §3

Chinese sprangletop = test: Test Example 3: herbicidal effect by foliage application, Wagner pot (Table 18, symbol D); assay type: in vivo, chinese sprangletop (Leptochloa chinensis); conditions: 320 g/ha
Procedure, shortened: as §4

lambsquarters [22] = test: Test Example 5: herbicidal effect by foliage application, plastic box (Table 20, symbol O); assay type: in vivo, lambsquarters (Chenopodium album); conditions: amount of applied herbicide 320 g/ha; foliage application after 14-day growth; evaluated three weeks after application
Procedure, shortened: as §3

Italian ryegrass [23] = test: Test Example 5: herbicidal effect by foliage application, plastic box (Table 20, symbol K); assay type: in vivo, Italian ryegrass (Lolium multiflorum); conditions: amount of applied herbicide 320 g/ha; foliage application after 14-day growth; evaluated three weeks after application
Procedure, shortened: as §3

wild oat [24] = test: Test Example 4: herbicidal effect by soil treatment (Table 19, symbol I); assay type: in vivo, wild oat (Avena fatua); conditions: amount of applied herbicide 320 g/ha
Procedure, shortened: as §2

green foxtail [25] = test: Test Example 4: herbicidal effect by soil treatment (Table 19, symbol G); assay type: in vivo, green foxtail (Setaria viridis); conditions: amount of applied herbicide 320 g/ha
Procedure, shortened: as §2

CCOc1ccccc1-c1sc2c(C)cccc2c1-c1c(O)c(C)nn(C)c1=O [4-112]
Herbicidal effect, A: late watergrass (late watergrass): 3 (Herbicidal rate of 40% or more and less than 70%)
Herbicidal effect by soil treatment, K: Italian ryegrass (Italian ryegrass [1]): 3 (Herbicidal rate of 40% or more and less than 70%)
Herbicidal effect by soil treatment, L: windgrass (windgrass [2]): 4 (Herbicidal rate of 70% or more and less than 90%)
Herbicidal effect by foliage application, J: blackgrass (blackgrass [3]): 5 (Herbicidal rate of 90% or more (almost completely withered))
Herbicidal effect by foliage application, L: windgrass (windgrass [4]): 5 (Herbicidal rate of 90% or more (almost completely withered))
Herbicidal effect by soil treatment, N: redroot pigweed (redroot pigweed [5]): 4 (Herbicidal rate of 70% or more and less than 90%)
Herbicidal effect by foliage application, H: barnyard grass (barnyard grass [6]): 4 (Herbicidal rate of 70% or more and less than 90%)
Herbicidal effect by soil treatment, P: chickweed (chickweed [7]): 3 (Herbicidal rate of 40% or more and less than 70%)
Herbicidal effect by foliage application, F: southern crabgrass (southern crabgrass [8]): 4 (Herbicidal rate of 70% or more and less than 90%)
herbicidal effect on rice flat sedge (E) (rice flat sedge): 5 (Herbicidal rate of 90% or more (almost completely withered))
Herbicidal effect, C: oval-leafed pondweed (oval-leafed pondweed): 0 (Herbicidal rate of 5% or less (almost no effect))
Herbicidal effect by soil treatment, J: blackgrass (blackgrass [9]): 2 (Herbicidal rate of 20% or more and less than 40%)
Herbicidal effect by soil treatment, R: persian speedwell (persian speedwell [10]): 5 (Herbicidal rate of 90% or more (almost completely withered))
Herbicidal effect by foliage application, M: velvetleaf (velvetleaf [11]): 5 (Herbicidal rate of 90% or more (almost completely withered))
Herbicidal effect by foliage application, I: wild oat (wild oat [12]): 4 (Herbicidal rate of 70% or more and less than 90%)
Herbicidal effect by foliage application, P: chickweed (chickweed [13]): 5 (Herbicidal rate of 90% or more (almost completely withered))
herbicidal effect on barnyard grass (H) (barnyard grass [14]): 5 (Herbicidal rate of 90% or more (almost completely withered))
Herbicidal effect by foliage application, G: green foxtail (green foxtail [15]): 5 (Herbicidal rate of 90% or more (almost completely withered))
Herbicidal effect by soil treatment, F: southern crabgrass (southern crabgrass [16]): 3 (Herbicidal rate of 40% or more and less than 70%)
Herbicidal effect by soil treatment, M: velvetleaf (velvetleaf [17]): 3 (Herbicidal rate of 40% or more and less than 70%)
Herbicidal effect, B: Japanese bulrush (Japanese bulrush): 3 (Herbicidal rate of 40% or more and less than 70%)
Herbicidal effect by soil treatment, O: lambsquarters (lambsquarters [18]): 3 (Herbicidal rate of 40% or more and less than 70%)
Herbicidal effect by foliage application, N: redroot pigweed (redroot pigweed [19]): 5 (Herbicidal rate of 90% or more (almost completely withered))
Herbicidal effect by soil treatment, H: barnyard grass (barnyard grass [20]): 3 (Herbicidal rate of 40% or more and less than 70%)
Herbicidal effect by foliage application, R: persian speedwell (persian speedwell [21]): 5 (Herbicidal rate of 90% or more (almost completely withered))
herbicidal effect on Chinese sprangletop (D) (Chinese sprangletop): 4 (Herbicidal rate of 70% or more and less than 90%)
Herbicidal effect by foliage application, O: lambsquarters (lambsquarters [22]): 5 (Herbicidal rate of 90% or more (almost completely withered))
Herbicidal effect by foliage application, K: Italian ryegrass (Italian ryegrass [23]): 4 (Herbicidal rate of 70% or more and less than 90%)
Herbicidal effect by soil treatment, I: wild oat (wild oat [24]): 0 (Herbicidal rate of 5% or less (almost no effect))
Herbicidal effect by soil treatment, G: green foxtail (green foxtail [25]): 4 (Herbicidal rate of 70% or more and less than 90%)
